pKi: −log10 of the molar value.

T3 sequence (P41595 whole entry): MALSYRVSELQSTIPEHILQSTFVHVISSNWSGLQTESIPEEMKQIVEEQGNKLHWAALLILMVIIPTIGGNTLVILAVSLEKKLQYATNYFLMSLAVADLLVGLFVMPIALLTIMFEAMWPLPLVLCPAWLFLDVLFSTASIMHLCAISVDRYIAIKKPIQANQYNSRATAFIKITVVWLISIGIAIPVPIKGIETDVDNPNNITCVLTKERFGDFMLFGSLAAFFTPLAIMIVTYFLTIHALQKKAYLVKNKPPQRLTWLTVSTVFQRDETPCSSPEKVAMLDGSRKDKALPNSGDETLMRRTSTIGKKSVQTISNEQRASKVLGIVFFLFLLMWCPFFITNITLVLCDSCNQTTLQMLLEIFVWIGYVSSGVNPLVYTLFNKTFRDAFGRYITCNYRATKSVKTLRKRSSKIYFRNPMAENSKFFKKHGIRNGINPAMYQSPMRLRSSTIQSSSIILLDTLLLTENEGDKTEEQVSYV
Sequence of 5-hydroxytryptamine receptor 1E (Homo sapiens) (P28566 whole entry): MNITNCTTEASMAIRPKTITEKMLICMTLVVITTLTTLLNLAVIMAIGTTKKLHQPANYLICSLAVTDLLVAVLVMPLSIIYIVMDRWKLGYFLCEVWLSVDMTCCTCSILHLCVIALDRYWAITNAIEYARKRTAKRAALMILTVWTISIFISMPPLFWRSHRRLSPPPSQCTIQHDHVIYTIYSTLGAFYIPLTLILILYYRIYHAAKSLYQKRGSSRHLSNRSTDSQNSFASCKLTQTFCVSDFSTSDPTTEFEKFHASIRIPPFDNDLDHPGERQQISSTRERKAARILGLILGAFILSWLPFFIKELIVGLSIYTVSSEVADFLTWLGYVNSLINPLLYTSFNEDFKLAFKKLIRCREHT
Sequence of 5-hydroxytryptamine receptor 4 (Homo sapiens) (Q13639 whole entry): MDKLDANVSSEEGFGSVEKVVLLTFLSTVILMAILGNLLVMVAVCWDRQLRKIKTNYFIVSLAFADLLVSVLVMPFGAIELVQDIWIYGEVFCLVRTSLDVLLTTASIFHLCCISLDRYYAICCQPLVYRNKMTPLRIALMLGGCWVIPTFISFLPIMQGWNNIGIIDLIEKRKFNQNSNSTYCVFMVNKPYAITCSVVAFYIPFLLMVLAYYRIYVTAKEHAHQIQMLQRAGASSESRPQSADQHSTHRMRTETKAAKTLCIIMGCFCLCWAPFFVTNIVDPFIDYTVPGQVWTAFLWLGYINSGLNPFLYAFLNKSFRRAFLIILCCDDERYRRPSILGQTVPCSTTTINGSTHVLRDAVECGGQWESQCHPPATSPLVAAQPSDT

The first experiment deals with T1, 5-hydroxytryptamine receptor 2A (Homo sapiens, UniProt P28223). Description: Displacement of [3H]ketanserin from human 5-HT2A receptor expressed in HEK-T cell membranes incubated for 90 mins under dark condition by microbeta scintillation counting method.
T1 sequence (P28223 whole entry): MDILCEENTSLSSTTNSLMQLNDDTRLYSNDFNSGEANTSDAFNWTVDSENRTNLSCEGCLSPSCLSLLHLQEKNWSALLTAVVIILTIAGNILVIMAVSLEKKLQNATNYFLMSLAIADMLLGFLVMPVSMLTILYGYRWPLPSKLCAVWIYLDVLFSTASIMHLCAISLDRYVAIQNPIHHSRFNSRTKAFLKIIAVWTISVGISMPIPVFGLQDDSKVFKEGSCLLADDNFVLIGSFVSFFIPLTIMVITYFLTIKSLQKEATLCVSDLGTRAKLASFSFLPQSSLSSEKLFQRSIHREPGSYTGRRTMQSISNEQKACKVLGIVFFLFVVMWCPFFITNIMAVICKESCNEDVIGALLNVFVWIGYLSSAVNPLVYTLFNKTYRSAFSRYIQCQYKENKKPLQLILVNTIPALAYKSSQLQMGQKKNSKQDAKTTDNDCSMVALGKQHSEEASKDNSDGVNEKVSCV
Details: not given
On the technique in general: Displacement assays read how much labelled ligand stays bound in the presence of the test substance.
By pKi is commonly meant the negative decadic logarithm of the Ki, by convention in mol/L. `O[C@@H]1[C@H](O)[C@@H]2C[C@@H]2[C@H]1n1cnc2c(NC(C3CC3)C3CC3)nc(Cl)nc21` had a negative-log Ki (pKi) of less than 5.00.

Take `CNC(=O)[C@H]1O[C@@H](n2cnc3c(NCc4cccc(I)c4)nc(Cl)nc32)[C@H](O)[C@@H]1O` [NAMODENOSON]: the pKi is less than 5.00.

As to `OC[C@H]1O[C@@H](n2cnc3c(NC(C4CC4)C4CC4)ncnc32)[C@H](O)[C@@H]1O`, the pKi was less than 5.00.

In a further experiment the target is 5-hydroxytryptamine receptor 7 (Homo sapiens) (UniProt P34969). Nature of the experiment: Displacement of [3H]LSD from human 5-HT7A receptor expressed in HEK cell membranes at 10 uM incubated for 90 mins under dark condition by microbeta scintillation counting method relative to control. The settings on record: HEK293.
Sequence of 5-hydroxytryptamine receptor 7 (Homo sapiens) (P34969 whole entry): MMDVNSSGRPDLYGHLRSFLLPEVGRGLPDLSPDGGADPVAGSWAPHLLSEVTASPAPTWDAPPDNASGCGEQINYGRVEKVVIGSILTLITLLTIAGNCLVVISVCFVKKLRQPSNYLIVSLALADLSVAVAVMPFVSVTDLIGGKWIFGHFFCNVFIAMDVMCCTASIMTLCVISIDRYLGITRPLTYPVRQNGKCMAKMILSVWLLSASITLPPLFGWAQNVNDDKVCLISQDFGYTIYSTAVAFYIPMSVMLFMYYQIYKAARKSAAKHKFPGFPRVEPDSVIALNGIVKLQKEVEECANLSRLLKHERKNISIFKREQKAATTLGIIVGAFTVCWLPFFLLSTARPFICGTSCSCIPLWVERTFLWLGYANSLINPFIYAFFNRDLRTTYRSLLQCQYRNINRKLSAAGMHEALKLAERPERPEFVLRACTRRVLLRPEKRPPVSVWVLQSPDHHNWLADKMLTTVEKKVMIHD
The inhibition is the drop in the measured response relative to a control, in per cent. Regarding `OC[C@H]1O[C@@H](n2cnc3c(NC(C4CC4)C4CC4)ncnc32)[C@H](O)[C@@H]1O`, the inhibition is less than 50%.

The target in another experiment is T2, 5-hydroxytryptamine receptor 3A (Homo sapiens) (UniProt P46098).
T2 sequence (whole entry): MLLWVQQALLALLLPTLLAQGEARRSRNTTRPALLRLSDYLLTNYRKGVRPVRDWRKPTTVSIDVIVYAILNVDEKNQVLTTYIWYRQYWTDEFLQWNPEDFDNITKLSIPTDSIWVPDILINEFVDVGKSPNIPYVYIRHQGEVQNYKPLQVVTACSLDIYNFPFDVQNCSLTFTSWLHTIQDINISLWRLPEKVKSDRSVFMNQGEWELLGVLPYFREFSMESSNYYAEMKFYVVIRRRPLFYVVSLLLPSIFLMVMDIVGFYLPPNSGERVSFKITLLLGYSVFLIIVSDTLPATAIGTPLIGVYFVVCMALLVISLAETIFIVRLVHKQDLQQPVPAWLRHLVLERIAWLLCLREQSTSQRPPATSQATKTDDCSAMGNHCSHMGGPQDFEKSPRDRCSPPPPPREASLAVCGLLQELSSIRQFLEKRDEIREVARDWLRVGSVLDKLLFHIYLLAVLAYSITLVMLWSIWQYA
Nature of the experiment: Displacement of [3H]GR65630 from human 5-HT3 receptor expressed in HEK-T cell membranes at 10 uM incubated for 90 mins under dark condition by microbeta scintillation counting method relative to control.
Details: not given
On to `OC[C@H]1O[C@@H](n2cnc3c(NC(C4CC4)C4CC4)ncnc32)[C@H](O)[C@@H]1O`, for which the inhibition is less than 50%.

In another experiment the target is 5-hydroxytryptamine receptor 5A (Homo sapiens) (UniProt P47898). Nature of the experiment: Displacement of [3H]LSD from human 5-HT5A receptor expressed in Flp-In-CHO cell membranes incubated for 90 mins under dark condition by microbeta scintillation counting method relative to control. Set-up: concentration or dose not given beside the values.
Sequence of 5-hydroxytryptamine receptor 5A (Homo sapiens) (P47898 whole entry): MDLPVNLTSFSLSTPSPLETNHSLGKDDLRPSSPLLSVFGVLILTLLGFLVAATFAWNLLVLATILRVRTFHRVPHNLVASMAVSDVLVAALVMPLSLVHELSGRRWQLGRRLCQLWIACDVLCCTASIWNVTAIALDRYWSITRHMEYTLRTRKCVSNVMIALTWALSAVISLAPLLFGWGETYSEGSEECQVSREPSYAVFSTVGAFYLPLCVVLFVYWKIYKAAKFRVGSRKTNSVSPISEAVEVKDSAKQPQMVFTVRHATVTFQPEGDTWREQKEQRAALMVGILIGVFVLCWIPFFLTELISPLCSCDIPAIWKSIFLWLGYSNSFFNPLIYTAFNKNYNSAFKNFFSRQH
Details: not given
For the compound `OC[C@H]1O[C@@H](n2cnc3c(NC(C4CC4)C4CC4)ncnc32)[C@H](O)[C@@H]1O`, the inhibition was less than 50%.

Another experiment concerns the target T3, 5-hydroxytryptamine receptor 2B (Homo sapiens, UniProt P41595). Nature of the experiment: biochemical.
Details: not given
It is filed as cell-based, HEK293.
Compound `O[C@@H]1[C@H](O)[C@@H]2C[C@@H]2[C@H]1n1cnc2c(NC(C3CC3)C3CC3)nc(Cl)nc21` showed a pKi of 6.17.

The compound `CNC(=O)[C@H]1O[C@@H](n2cnc3c(NCc4cccc(I)c4)nc(Cl)nc32)[C@H](O)[C@@H]1O` [NAMODENOSON] had a pKi of 5.56.

A further experiment has as its target T4, 5-hydroxytryptamine receptor 2C (Homo sapiens) (UniProt P28335).
T4 sequence (whole entry): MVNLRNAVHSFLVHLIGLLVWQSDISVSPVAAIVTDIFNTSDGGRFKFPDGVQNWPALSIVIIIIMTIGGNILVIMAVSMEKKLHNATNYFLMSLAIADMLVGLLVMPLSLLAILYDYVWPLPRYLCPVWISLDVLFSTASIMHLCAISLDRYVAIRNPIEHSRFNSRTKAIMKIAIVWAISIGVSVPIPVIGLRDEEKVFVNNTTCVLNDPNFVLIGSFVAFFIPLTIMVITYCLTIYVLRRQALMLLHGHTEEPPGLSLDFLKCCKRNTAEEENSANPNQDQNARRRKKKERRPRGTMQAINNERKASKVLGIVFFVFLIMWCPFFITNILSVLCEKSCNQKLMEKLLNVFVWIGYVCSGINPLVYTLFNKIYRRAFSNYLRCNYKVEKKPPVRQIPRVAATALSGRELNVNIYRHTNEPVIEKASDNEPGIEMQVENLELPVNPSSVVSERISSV
Description: Displacement of [3H]mesulergine from human 5-HT2CR expressed in Flp-In HEK cell membranes at 10 uM incubated for 90 mins under dark condition by microbeta scintillation counting method relative to control. The settings on record: HEK293.
The compound `CNC(=O)[C@H]1O[C@@H](n2cnc3c(NCc4cccc(I)c4)nc(Cl)nc32)[C@H](O)[C@@H]1O` [NAMODENOSON] registered an inhibition of more than 50%.

Compound `OC[C@H]1O[C@@H](n2cnc3c(NC(C4CC4)C4CC4)ncnc32)[C@H](O)[C@@H]1O` had an inhibition of 11%.

The target of a further experiment is T5, 5-hydroxytryptamine receptor 2C (Homo sapiens, UniProt P28335).
T5 sequence (P28335 whole entry): T4 sequence (whole entry)
Nature of the experiment: Displacement of [3H]mesulergine from human 5-HT2CR expressed in Flp-In HEK cell membranes incubated for 90 mins under dark condition by microbeta scintillation counting method. Also on record: species or system HEK293.
Details: not given
`CNC(=O)[C@H]1O[C@@H](n2cnc3c(NCc4cccc(I)c4)nc(Cl)nc32)[C@H](O)[C@@H]1O` [NAMODENOSON] gave a negative logarithm of the Ki (pKi) of 5.00.

Another experiment concerns the target T3, 5-hydroxytryptamine receptor 2B.
Assay: not given
As to conditions: HEK293, at 10 µM.
For `OC[C@H]1O[C@@H](n2cnc3c(NC(C4CC4)C4CC4)ncnc32)[C@H](O)[C@@H]1O`, the inhibition was 38%.

The next experiment deals with 5-hydroxytryptamine receptor 1B (Homo sapiens) (UniProt P28222). Nature of the experiment: Displacement of [3H]5-CT from human 5-HT1BR expressed in HEK cell membranes at 10 uM incubated for 90 mins under dark condition by microbeta scintillation counting method relative to control. The settings on record: HEK293.
Sequence of 5-hydroxytryptamine receptor 1B (Homo sapiens) (P28222 whole entry): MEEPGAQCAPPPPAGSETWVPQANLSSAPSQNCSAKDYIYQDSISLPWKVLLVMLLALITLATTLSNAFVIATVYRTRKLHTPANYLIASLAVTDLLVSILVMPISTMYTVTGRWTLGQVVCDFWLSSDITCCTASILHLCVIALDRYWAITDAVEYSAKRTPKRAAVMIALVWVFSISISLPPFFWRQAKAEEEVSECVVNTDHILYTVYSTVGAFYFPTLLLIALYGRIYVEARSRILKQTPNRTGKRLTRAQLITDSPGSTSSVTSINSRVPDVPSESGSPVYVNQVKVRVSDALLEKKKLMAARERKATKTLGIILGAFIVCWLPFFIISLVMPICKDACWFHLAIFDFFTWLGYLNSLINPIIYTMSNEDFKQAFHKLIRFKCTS
In turn, `OC[C@H]1O[C@@H](n2cnc3c(NC(C4CC4)C4CC4)ncnc32)[C@H](O)[C@@H]1O` had an inhibition of less than 50%.

Another experiment addresses T6, 5-hydroxytryptamine receptor 1A (Homo sapiens) (UniProt P08908).
T6 sequence (whole entry): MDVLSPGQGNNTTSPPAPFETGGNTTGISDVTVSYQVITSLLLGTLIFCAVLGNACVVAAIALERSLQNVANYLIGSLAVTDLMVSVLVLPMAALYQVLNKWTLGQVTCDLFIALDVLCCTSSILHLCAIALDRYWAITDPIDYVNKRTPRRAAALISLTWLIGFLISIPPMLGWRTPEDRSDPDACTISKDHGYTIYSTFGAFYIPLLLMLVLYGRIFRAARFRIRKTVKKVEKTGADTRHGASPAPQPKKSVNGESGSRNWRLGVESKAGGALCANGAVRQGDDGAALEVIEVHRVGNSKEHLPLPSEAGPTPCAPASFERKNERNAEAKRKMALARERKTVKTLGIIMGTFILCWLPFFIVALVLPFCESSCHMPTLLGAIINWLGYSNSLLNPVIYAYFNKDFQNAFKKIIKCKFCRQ
Nature of the experiment: Displacement of [3H]WAY100635 from human 5-HT1AR expressed in CHO cell membranes at 10 uM incubated for 90 mins under dark condition by microbeta scintillation counting method relative to control.
Details: not given
On to `OC[C@H]1O[C@@H](n2cnc3c(NC(C4CC4)C4CC4)ncnc32)[C@H](O)[C@@H]1O`, for which the inhibition is less than 50%.

The target in a further experiment is 5-hydroxytryptamine receptor 6 (Homo sapiens) (UniProt P50406). Description: Displacement of [3H]LSD from human 5-HT6 receptor expressed in HEK cell membranes at 10 uM incubated for 90 mins under dark condition by microbeta scintillation counting method relative to control. The settings on record: HEK293.
Sequence of 5-hydroxytryptamine receptor 6 (Homo sapiens) (P50406 whole entry): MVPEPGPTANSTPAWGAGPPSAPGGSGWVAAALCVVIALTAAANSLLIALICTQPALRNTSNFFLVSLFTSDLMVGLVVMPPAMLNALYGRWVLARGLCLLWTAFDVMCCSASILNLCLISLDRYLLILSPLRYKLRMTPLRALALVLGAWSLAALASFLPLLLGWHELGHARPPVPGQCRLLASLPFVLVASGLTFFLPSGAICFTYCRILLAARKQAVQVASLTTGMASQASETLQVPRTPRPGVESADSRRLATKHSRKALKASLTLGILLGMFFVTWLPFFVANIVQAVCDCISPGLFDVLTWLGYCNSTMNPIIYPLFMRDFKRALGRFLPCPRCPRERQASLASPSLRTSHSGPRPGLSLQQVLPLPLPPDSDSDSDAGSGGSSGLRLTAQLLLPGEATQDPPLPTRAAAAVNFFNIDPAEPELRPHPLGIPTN
On to `OC[C@H]1O[C@@H](n2cnc3c(NC(C4CC4)C4CC4)ncnc32)[C@H](O)[C@@H]1O`, for which the inhibition is less than 50%.

A further experiment concerns the target 5-hydroxytryptamine receptor 1E (Homo sapiens) (UniProt P28566). Nature of the experiment: Displacement of [3H]5-HT from human 5-HT1E receptor expressed in HEK cell membranes at 10 uM incubated for 90 mins under dark condition by microbeta scintillation counting method relative to control. The settings on record: HEK293.
As for `OC[C@H]1O[C@@H](n2cnc3c(NC(C4CC4)C4CC4)ncnc32)[C@H](O)[C@@H]1O`, the inhibition was less than 50%.

The target in another experiment is T1, 5-hydroxytryptamine receptor 2A. Nature of the experiment: Displacement of [3H]ketanserin from human 5-HT2A receptor expressed in HEK-T cell membranes at 10 uM incubated for 90 mins under dark condition by microbeta scintillation counting method relative to control.
Details: not given
Regarding `O[C@@H]1[C@H](O)[C@@H]2C[C@@H]2[C@H]1n1cnc2c(NC(C3CC3)C3CC3)nc(Cl)nc21`, the inhibition was less than 10%.

For `CNC(=O)[C@H]1O[C@@H](n2cnc3c(NCc4cccc(I)c4)nc(Cl)nc32)[C@H](O)[C@@H]1O` [NAMODENOSON], the inhibition was 30%.

As to `OC[C@H]1O[C@@H](n2cnc3c(NC(C4CC4)C4CC4)ncnc32)[C@H](O)[C@@H]1O`, the inhibition was less than 10%.

The next experiment has as its target 5-hydroxytryptamine receptor 4 (Homo sapiens) (UniProt Q13639). Description: Displacement of [3H]GR113808 from human 5-HT4 receptor at 10 uM incubated for 90 mins under dark condition by microbeta scintillation counting method relative to control.
Details: not given
Consider `OC[C@H]1O[C@@H](n2cnc3c(NC(C4CC4)C4CC4)ncnc32)[C@H](O)[C@@H]1O`, for which the inhibition is less than 50%.

The next experiment deals with 5-hydroxytryptamine receptor 1D (Homo sapiens) (UniProt P28221). Description: Displacement of [3H]5-CT from human 5-HT1D receptor expressed in HEK-T cell membranes at 10 uM incubated for 90 mins under dark condition by microbeta scintillation counting method relative to control.
Sequence of 5-hydroxytryptamine receptor 1D (Homo sapiens) (P28221 whole entry): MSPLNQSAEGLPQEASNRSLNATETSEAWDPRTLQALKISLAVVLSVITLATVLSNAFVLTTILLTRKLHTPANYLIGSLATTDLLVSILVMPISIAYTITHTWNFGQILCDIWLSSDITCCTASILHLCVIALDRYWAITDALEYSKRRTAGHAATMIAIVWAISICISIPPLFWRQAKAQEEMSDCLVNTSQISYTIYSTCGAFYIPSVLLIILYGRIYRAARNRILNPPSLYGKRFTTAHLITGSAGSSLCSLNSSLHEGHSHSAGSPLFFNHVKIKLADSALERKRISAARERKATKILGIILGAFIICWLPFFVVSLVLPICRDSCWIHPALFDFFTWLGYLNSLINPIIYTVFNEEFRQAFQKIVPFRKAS
Details: not given
Compound `OC[C@H]1O[C@@H](n2cnc3c(NC(C4CC4)C4CC4)ncnc32)[C@H](O)[C@@H]1O` had an inhibition of less than 50%.

(Values after ChEMBL document CHEMBL3862033 (J Med Chem, 2016).)
